Results reported in article PMC10141620 (Viruses, 2023).
Several values for one entry are separate records, joined by “and”; a condition that tells them apart may be missing. Equal entries are not always repeated.

Columns and labels:
Format in all cases: cell-based
[1] = tested on: SARS-CoV-2 USA-WA1/2020 D614G pseudovirus
[2] = tested on: SARS-CoV-2 Brazil (Gamma: K417T/E484K/N501Y) pseudovirus
[3] = tested on: SARS-CoV-2 mutant (D614G) and variants of concern (VOC) pseudoviruses; conditions: read-out: IC50, range over all variant pseudoviruses

SMILES	IC50 [1]	IC50 [2]	IC50 [3]
Cc1ccc2nc3s/c(=C/c4coc(-c5ccc(Cl)c(C(=O)O)c5)c4)c(=O)n3c2c1 [NBCoV35]	266 nM and 195 nM	292 nM and 506 nM	–
O=C(O)c1cc(-c2ccc(/C=c3\sc4nc(=O)c5c6c(sc5n4c3=O)CCCC6)o2)ccc1Cl [NBCoV36]	–	–	181 to 1180 nM and 129 to 332 nM
Cc1cc(C)c2nc3s/c(=C\c4ccc(-c5ccc(Cl)c(C(=O)O)c5)o4)c(=O)n3c2c1 [NBCoV37]	311 nM and 157 nM	–	82 to 267 nM and 42.5 to 311 nM
Cc1cc2nc3s/c(=C/c4ccc(-c5cccc(C(=O)O)c5)o4)c(=O)n3c2cc1C [NBCoV63]	42.5 nM and 40.8 nM	45.5 nM and 77.5 nM	34 to 96 nM and 26 to 105 nM
